# How the values were obtained:
# [1] = tested on: hepatocellular carcinoma cell line HepG2; experiment: Cell viability assay (ATP quantitation); format: cell-based; settings: 50 nM, 120 hrs, Lipofectamine3000 2 ul/ml, vs non-targeting control ASO
# Procedure: (§1) EsiRNA, siRNA and ASO GapmeRs were transfected in a final concentration of 50 nM unless mentioned otherwise and the transfection reagent Lipofectamine 3000 (2 ul/ml) was added according to the manufacturer's instructions.
# (§2) Dependent on cell doubling time, 0.7-2×10^^3 cells were seeded in 96 well plates. 1 day after seeding cells were incubated in media with oligonucleotide concentration and/or MEKi and transfection reagent. 3 (synergy experiments) or 5 (solely ASO) days after transfection Total luminescence was measured on the SynergyHT plate reader (BioTek) using Gen5 software.
# (§3) Cell viability was compared to treatment with non-targeting control ASO-treatment. Lipofectamine3000 concentration was 2 ul/ml.
# [2] = tested on: sarcoma cell line SK-LMS-1; experiment: Cell viability assay (ATP quantitation); format: cell-based; settings: SK-LMS-1 sarcoma; 50 nM, 120 hrs; Lipofectamine3000 2 ul/ml; vs non-targeting control ASO
# Procedure: as §1, §2, §3
# Caspase 3+7 = experiment: Caspase Glo 3/7 assay in D04 cell line; format: cell-based, human; settings: ASO 50 nM, 1 day, vs control ASOs
# Procedure: Dependent on cell doubling time, 2-3×10^^3 cells were seeded in 96 well plates. 1 day after seeding cells were incubated in media with 50 nM oligonucleotide concentration and transfection reagent. 1 day after transfection Total luminescence was measured on the SynergyHT plate reader (BioTek) using Gen5 software. Experiments were performed in quadruplicates.
# [3] = tested on: gene expression in D04 melanoma cells; experiment: DAVID Functional Annotation Clustering (GO term) analysis of DE genes; design: species or system human; settings: RNA-Seq
# Procedure: Differential expression (DE) analysis was done using DESeq2. Differentially expressed genes were defined by more than 1.5-fold changes (log 2 >0.58 or <−0.58) in expression with FDR<0.05. GO term analysis was done using DAVID Functional Annotation Clustering analysis.
# To examine the biomolecular changes upon TRASH-inhibition in melanoma, D04 cells were treated with TRASH-ASOs (SEQ ID NO:15) and Control-ASOs and RNA was extracted and used for RNA-Seq. […] These GO terms consisted of genes encoding growth factors, tyrosine kinases, G protein coupled receptor subunits, and collagen subunits. Scatter plot diagram showing differential gene expression after TRASH-ASO treatment compared to Control-ASO treatment. (cut-off for significance was adjusted p-value <0.05). Data was obtained from RNA-Seq of D04 melanoma cells, treatment period was three days. (FIG. 5c)
# [4] = tested on: kinases in D04, D04RM and MM415 melanoma cell extracts; experiment: High Throughput Kinase Activity Mapping (HT-KAM); format: cell-based, human; settings: ASO 50 nM, one day, vs Control-ASO
# Procedure: We mapped and compared the phospho-catalytic profile of kinases of D04, MM415 and D04RM cells that were incubated with TRASH targeting ASOs (SEQ TD NO: 15), ASOs targeting the oncogenic lncRNA Malat1 and non-targeting control ASOs. Therefore, ye used the high-throughput system HTKAM to measure the enzymatic activity of kinases using biological peptide targets as phospho-sensors to reveal kinase dependencies in cell lines.
# Kinases cover a wide range of apoptosis regulating functions in cancer. Given the findings that TRASH-ASO treatment (SEQ ID NO:15) strongly affects the transcriptional regulation of genes that are related to kinase signaling pathways, we aimed to perform functional profiling of kinase activity shifts triggered by TRASH-inhibition. To do so, we used a kinase activity screening platform39 (named High Throughput Kinase Activity Mapping—HT-KAM) that enables the simultaneous identification of kinase enzymes functional state in cancer cells across a broad range of kinase families (see Methods for details). We generated protein extracts of two versions of the D04 (D04—treatment naive; D04RM—trametinib resistant) and the MM415 melanoma cell-lines, treated with Control-ASOs or TRASH-ASOs. […]
# D04 cells = experiment: Repetition of drug treatment in surviving D04 cells (drug resistance test); format: cell-based, human; settings: TRASH-ASO 50 nM or MEKi 15 nM (or 20 nM), recovery in drug free media, five days (120 hrs)
# Procedure: as §2
# Rescuing cells that survived initial TRASH-ASO (SEQ ID NO:15) and MEKi (trametinib) treatment and providing the rescued cells with a phase of regrowth in drug free media, was followed by repetition of the preceding drug treatment. […] Incubation time was 120 hrs, n=3. (FIG. 5d).
sequence,measurement,setting,value
"GACTGGAGATAATTAA (gapmer, pattern not given here) [SEQ ID NO: 15, GapmeR ASO targeting AC004540.4 (TRASH), exon region of both isoforms; used for in vitro experiments]",cell viability decrease,[1],significant cell viability decrease
same,cell viability decrease,[2],significant cell viability decrease
same,Caspase-3 &-7 activity increase,Caspase 3+7,3.0 fold
same,top enriched GO term clusters associated with the down-regulated genes,[3],“ECM-receptor interaction” and “PI3K-AKT signaling pathway”
same,top enriched GO term clusters associated with the up-regulated genes,[3],“protein tyrosine kinase activity” (GO: 0004713) and “Ras guanyl-nucleotide exchange factor activity” (G00005088)
same,"activity of anti-apoptotic kinases (AKT1, CDK1, LYN, YES1, CHEK1, PKCA, STK11, PKCa, PIM1) by HT-KAM",[4]; listed as SEQ TD NO: 15,significantly decreased activity levels
same,"activity of anti-apoptotic kinases (AKT1, CDK1, LYN, YES1, CHEK1, PKCA, STK11, PKCa, PIM1) by HT-KAM",[4]; listed as TRASH-ASO,significantly less active
same,cell-growth reduction on repetition of the preceding drug treatment in surviving cells,"D04 cells; n=3, listed as SEQ ID NO:15",increased vulnerability
same,cell-growth reduction on repetition of the preceding drug treatment in surviving cells,"D04 cells; n=3, listed as TRASH-ASO",significantly increased (p=0.004) cell-growth reduction
